Patent US11345694B2, “Antibacterial compounds” (DISCUVA LTD., priority 2017, dated 2022)
≈ marks a conversion by molar mass, not a printed value.

What was measured:
[1] = test system: Klebsiella pneumoniae ATCC 10031 (KP2); experiment: MIC broth microdilution; type: cell-based; details: ATCC10031
Procedure, shortened: (§1)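 CLSI M07-A10 broth microdilution against planktonic cells, two-fold serial compound dilutions spanning 0.39-200 μM final, DMSO at most 2% final. Cation-adjusted Müller-Hinton broth, 37° C, ambient air; MIC taken as lowest concentration inhibiting growth after 20-24 hour incubation.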

[2] = test system: Acinetobacter baumannii ATCC 17978 (AB); experiment: MIC broth microdilution; type: cell-based; details: ATCC17978
Procedure, shortened: (§2)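 CLSI M07 broth microdilution; cation-adjusted MH broth; 2-fold series, final 0.39-200 μM, ≤2% DMSO final; 37° C, ambient atmosphere, 20-24 h. MIC = lowest conc. with no growth.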

[3] = test system: Enterobacter cloacae DSM 30054 (Ed); experiment: MIC broth microdilution; type: cell-based; details: DSM30054
Procedure, shortened: as §1

[4] = test system: Pseudomonas aeruginosa ATCC 33359 (PA); experiment: MIC broth microdilution; type: cell-based; details: ATCC33359
Procedure, shortened: as §2

[5] = test system: Staphylococcus aureus ATCC 35556 (SA); experiment: MIC broth microdilution; type: cell-based; details: ATCC35556
Procedure, shortened: as §2

[6] = test system: Salmonella typhimurium XNAA5 (St); experiment: MIC broth microdilution; type: cell-based; details: Salmonella enterica
Procedure, shortened: as §2

[7] = test system: Escherichia coli K12 (EC); experiment: MIC broth microdilution; type: cell-based
Procedure, shortened: as §2

[8] = test system: Serratia marcescens SL1344 (Sm); experiment: MIC broth microdilution; type: cell-based
Procedure, shortened: as §2

[9] = test system: human hepatocarcinoma cell line ATCC HB-8065 (HepG2); experiment: Human cell viability (CellTiter-Glo); type: cell-based; details: Homo sapiens; HepG2 cells, 24 h incubation, CellTiter-Glo luminescence, 0.2-100 μM; read-out: IC50 values against the HepG2 cell line
Procedure, shortened: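 Cytotoxicity was read as CellTiter-Glo luminescence after 24 h compound exposure at 37° C., 5% CO2. Final concentrations spanned 0.2-100 μM in two-fold steps, in 1% FBS MEM with 1% DMSO, on cells plated a day earlier at 20,000/well. IC50 came from 4-parameter logistic regression.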

[10] = test system: E. coli NCTC 13441 (UPEC); experiment: MIC broth microdilution; type: cell-based, Escherichia coli; details: Escherichia coli, NCTC13441
Procedure, shortened: as §2

[11] = test system: K. pneumoniae H154600588 (KP8); experiment: MIC broth microdilution; type: cell-based, Klebsiella pneumoniae; details: Klebsiella pneumoniae
Procedure, shortened: as §1

[12] = test system: K. pneumoniae H154020667 (KP6); experiment: MIC broth microdilution; type: cell-based, Klebsiella pneumoniae; details: Klebsiella pneumoniae
Procedure, shortened: as §1

[13] = test system: K. pneumoniae NCTC 13438 (KP1); experiment: MIC broth microdilution; type: cell-based, Klebsiella pneumoniae; details: Klebsiella pneumoniae, NCTC13438
Procedure, shortened: as §1

[14] = test system: K. pneumoniae ATCC 700603 (KP3); experiment: MIC broth microdilution; type: cell-based, Klebsiella pneumoniae; details: Klebsiella pneumoniae, ATCC700603
Procedure, shortened: as §1

[15] = test system: K. pneumoniae H154300688 (KP9); experiment: MIC broth microdilution; type: cell-based, Klebsiella pneumoniae; details: Klebsiella pneumoniae
Procedure, shortened: as §1

[16] = test system: K. pneumoniae H154640784 (KP7); experiment: MIC broth microdilution; type: cell-based, Klebsiella pneumoniae; details: Klebsiella pneumoniae
Procedure, shortened: as §1

[17] = test system: K. pneumoniae H154680676 (KP5); experiment: MIC broth microdilution; type: cell-based, Klebsiella pneumoniae; details: Klebsiella pneumoniae
Procedure, shortened: as §1

[18] = test system: K. pneumoniae H151440671 (KP10); experiment: MIC broth microdilution; type: cell-based, Klebsiella pneumoniae; details: Klebsiella pneumoniae
Procedure, shortened: as §1

SMILES	MIC [1]	MIC [2]	MIC [3]	MIC [4]	MIC [5]	MIC [6]	MIC [7]	MIC [8]	IC50 [9]	MIC [10]	MIC [11]	MIC [12]	MIC [13]	MIC [14]	MIC [15]	MIC [16]	MIC [17]	MIC [18]
Cc1cc(-c2[nH]c(N)nc2-c2ccc3c(c2)OCCO3)ccn1 [Example 23, 4-(2,3-Dihydrobenzo[b][1,4]dioxin-6-yl)-5-(2-methylpyridin-4-yl)-1H-imidazol-2-amine]	≤ 1 µM	> 100 µM	≤ 1 µM	> 100 µM	> 100 µM	≤ 1 µM	≤ 1 µM	1 to 10 µM (≈ 0.308 to 3.08 µg/mL)	> 100 µM	≤ 1 µM	1 to 10 µM (≈ 0.308 to 3.08 µg/mL)	≤ 1 µM	1 to 10 µM (≈ 0.308 to 3.08 µg/mL)	1 to 10 µM (≈ 0.308 to 3.08 µg/mL)	≤ 1 µM	1 to 10 µM (≈ 0.308 to 3.08 µg/mL)	≤ 1 µM	≤ 1 µM
Cc1cc(-c2[nH]c(N)nc2-c2ccc3c(c2)NCCO3)ccn1 [Example 27, 4-(3,4-Dihydro-2H-benzo[b][1,4]oxazin-6-yl)-5-(2-methylpyridin-4-yl)-1H-imidazol-2-amine]	≤ 1 µM	> 100 µM	≤ 1 µM	> 100 µM	> 100 µM	≤ 1 µM	≤ 1 µM	1 to 10 µM (≈ 0.307 to 3.07 µg/mL)	> 100 µM	≤ 1 µM	1 to 10 µM (≈ 0.307 to 3.07 µg/mL)	≤ 1 µM	1 to 10 µM (≈ 0.307 to 3.07 µg/mL)	1 to 10 µM (≈ 0.307 to 3.07 µg/mL)	1 to 10 µM (≈ 0.307 to 3.07 µg/mL)	1 to 10 µM (≈ 0.307 to 3.07 µg/mL)	≤ 1 µM	≤ 1 µM
Cc1cc(-c2[nH]c(N)nc2-c2ccc(OCc3ccc(F)cc3)nc2)ccn1 [Example 28, 4-(6-((4-Fluorobenzyl)oxy)pyridin-3-yl)-5-(2-methylpyridin-4-yl)-1H-imidazol-2-amine]	≤ 1 µM	> 100 µM	≤ 1 µM	> 100 µM	> 100 µM	≤ 1 µM	≤ 1 µM	≤ 1 µM	25 to 100 µM	≤ 1 µM	1 to 10 µM (≈ 0.375 to 3.75 µg/mL)	≤ 1 µM	1 to 10 µM (≈ 0.375 to 3.75 µg/mL)	1 to 10 µM (≈ 0.375 to 3.75 µg/mL)	≤ 1 µM	1 to 10 µM (≈ 0.375 to 3.75 µg/mL)	≤ 1 µM	≤ 1 µM

The next lines start with the values.

MIC [1]	MIC [2]	MIC [3]	MIC [4]	MIC [5]	MIC [6]	MIC [7]	MIC [8]	IC50 [9]	MIC [10]	MIC [11]	MIC [12]	MIC [13]	MIC [14]	MIC [15]	MIC [16]	MIC [17]	MIC [18]	SMILES
≤ 1 µM	> 100 µM	≤ 1 µM	> 100 µM	> 100 µM	≤ 1 µM	≤ 1 µM	≤ 1 µM	25 to 100 µM	≤ 1 µM	≤ 1 µM	≤ 1 µM	≤ 1 µM	≤ 1 µM	≤ 1 µM	≤ 1 µM	≤ 1 µM	≤ 1 µM	Cc1cc(-c2nc(N)[nH]c2-c2ccc(OCc3ccc(F)cc3)c(F)c2)ccn1 [Example 16, 5-(3-Fluoro-4-((4-fluorobenzyl)oxy)phenyl)-4-(2-methylpyridin-4-yl)-1H-imidazol-2-amine]
≤ 1 µM	10 to 100 µM (≈ 3.74 to 37.4 µg/mL)	≤ 1 µM	> 100 µM	10 to 100 µM (≈ 3.74 to 37.4 µg/mL)	≤ 1 µM	≤ 1 µM	≤ 1 µM	25 to 100 µM	≤ 1 µM	1 to 10 µM (≈ 0.374 to 3.74 µg/mL)	≤ 1 µM	≤ 1 µM	≤ 1 µM	≤ 1 µM	1 to 10 µM (≈ 0.374 to 3.74 µg/mL)	≤ 1 µM	≤ 1 µM	Cc1cc(-c2[nH]c(N)nc2-c2ccc(OCc3ccc(F)cc3)cc2)ccn1 [Example 19, 4-(4-((4-Fluorobenzyl)oxy)phenyl)-5-(2-methylpyridin-4-yl)-1H-imidazol-2-amine]
